Tested on: T1, lipase from Bacillus cereus ATA179
T1 construct: gene extracellular lipase; 47 kDa by SDS-PAGE
Test: lipase activity at varied tributyrin, Lineweaver-Burk plot
Assay type: biochemical
Details: tributyrin 0.1-1.2 mM; partially purified enzyme; pH and temperature of the kinetic assay not given

`CCCC(=O)OCC(COC(=O)CCC)OC(=O)CCC` [tributyrin] was tested, and the Km was 110 µM.
